12 compounds from US11053251B2, “GPR35 modulators” (Prometheus Biosciences, Inc., priority 2019, dated 2021) can be followed below.

Where only a bound is given, the exact number is not on record here.

For the experiment, the target named is Human GPR35 (Homo sapiens, UniProt Q9HC97, S294R). The experiment can be described thus: Alternative Beta-Arrestin Assay (JumpIn 294R Tango U2OS cells, LiveBLAzer-FRET B/G). The class given is cell-based. The settings on record: Human GPR35 expressing JumpIn 294R Tango U2OS cells, 5 hours treatment. The method, then: Human GPR35 expressing JumpIn (Thermo Fisher) 294R Tango U2OS cells were plated in 384-well format in clear bottom plates at a cell density of 10,000 cells/well and allowed to grow overnight. The next day, cells were treated with serially diluted test compounds for 5 hours. LiveBLAzer-FRET B/G (CCF4-AM) detection reagents were then added and cells were allowed to incubate for 2 hours before reading plates on a BioTek Cytation 5 plate reader. Zaprinast was used as a positive control for dose-response curves. In order to determine EC50 values, data w ere fit to a four-parameter dose-response curves.
Chain of Human GPR35 (Q9HC97 whole entry S294R): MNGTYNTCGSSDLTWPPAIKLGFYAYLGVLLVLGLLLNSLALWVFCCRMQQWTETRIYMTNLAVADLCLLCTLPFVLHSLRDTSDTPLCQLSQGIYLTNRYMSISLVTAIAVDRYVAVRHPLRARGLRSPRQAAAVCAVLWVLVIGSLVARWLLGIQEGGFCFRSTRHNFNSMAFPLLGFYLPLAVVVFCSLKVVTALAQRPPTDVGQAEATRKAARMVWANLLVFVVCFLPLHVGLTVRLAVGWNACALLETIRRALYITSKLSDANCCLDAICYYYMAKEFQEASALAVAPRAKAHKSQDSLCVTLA
`CCOc1cc(-c2cccc(NCC(=O)O)c2)ccc1-c1nc2[nH]nnc2c(=O)[nH]1` [Compound 214, (3′-Ethoxy-4′-(7-oxo-6,7-dihydro-3H-[1,2,3]triazolo[4,5-d]pyrimidin-5-yl)-[1,1′-biphenyl]-3-yl)glycine] displayed a concentration for a half-maximal effect (EC50) not above 10 µM.

For `CCOc1cc(-c2cc(C(=O)O)n(C)c2)ccc1-c1nc2[nH]nnc2c(=O)[nH]1` [Compound 192, 4-(3-ethoxy-4-(7-oxo-6,7-dihydro-3H-[1,2,3]triazolo[4,5-d]pyrimidin-5-yl)phenyl)-1-methyl-1H-pyrrole-2-carboxylic acid], the EC50 was not above 10 µM.

Turning to `CCOc1cc(-c2cc(OCC(=O)OC)cc(C(=O)OC)c2)ccc1-c1nc2[nH]nnc2c(=O)[nH]1` [Compound 218, Methyl 3′-ethoxy-5-(2-methoxy-2-oxoethoxy)-4′-(7-oxo-6,7-dihydro-3H-[1,2,3]triazolo[4,5-d]pyrimidin-5-yl)-[1,1′-biphenyl]-3-carboxylate], the EC50 is not above 10 µM.

`CCOc1cc(-c2ccc(C(=O)O)c(OCC(=O)O)c2)ccc1-c1nc2[nH]nnc2c(=O)[nH]1` [Compound 220, 3-(Carboxymethoxy)-3′-ethoxy-4′-(7-oxo-6,7-dihydro-3H-[1,2,3]triazolo[4,5-d]pyrimidin-5-yl)-[1,1′-biphenyl]-4-carboxylic acid] gave an EC50 not above 10 µM.

Compound `CCOc1cc(-c2ccc(NCC(=O)O)cc2)ccc1-c1nc2[nH]nnc2c(=O)[nH]1` [Compound 215, (3′-Ethoxy-4′-(7-oxo-6,7-dihydro-3H-[1,2,3]triazolo[4,5-d]pyrimidin-5-yl)-[1,1′-biphenyl]-4-yl)glycine] registered an EC50 not above 10 µM.

With `CCOc1cc(-c2cccc(O[C@H](C)C(=O)O)c2)ccc1-c1nc2[nH]nnc2c(=O)[nH]1` (single isomer, unassigned) [Compound 251], the EC50 was not above 10 µM.

In turn, `CCOc1cc(-c2cccc(OC(C(=O)O)C(C)C)c2)ccc1-c1nc2[nH]nnc2c(=O)[nH]1` (stereo not drawn) [Compound 269, 2-((3′-ethoxy-4′-(7-oxo-6,7-dihydro-3H-[1,2,3]triazolo[4,5-d]pyrimidin-5-yl)-[1,1′-biphenyl]-3-yl)oxy)-3-methylbutanoic acid] came in with an EC50 not above 10 µM.

Compound `CCOc1cc(-c2ccc(OCCN(C)C)c(/C=C/C(=O)O)c2)ccc1-c1nc2[nH]nnc2c(=O)[nH]1` [Compound 319, (E)-3-(4-(2-(dimethylamino)ethoxy)-3′-ethoxy-4′-(7-oxo-6,7-dihydro-3H-[1,2,3]triazolo[4,5-d]pyrimidin-5-yl)-[1,1′-biphenyl]-3-yl)acrylic acid] showed an EC50 not above 10 µM.

Take `CCOc1cc(-c2cccc([C@@H]3C[C@H]3C(=O)O)c2)ccc1-c1nc2[nH]nnc2c(=O)[nH]1` (single isomer, unassigned) [Compound 278, trans-2-(3′-ethoxy-4′-(7-oxo-6,7-dihydro-3H-[1,2,3]triazolo[4,5-d]pyrimidin-5-yl)-[1,1′-biphenyl]-3-yl)cyclopropane-1-carboxylic acid]: the EC50 was not above 10 µM.

As to `CCOc1cc(-c2cc(O)cc(NCC(=O)O)c2)ccc1-c1nc2[nH]nnc2c(=O)[nH]1` [Compound 223, (3′-Ethoxy-5-hydroxy-4′-(7-oxo-6,7-dihydro-3H-[1,2,3]triazolo[4,5-d]pyrimidin-5-yl)-[1,1′-biphenyl]-3-yl)glycine], the concentration for a half-maximal effect (EC50) is not above 10 µM.

The compound `O=C(O)c1ccc(-c2ccc(-c3nc4[nH]nnc4c(=O)[nH]3)cc2[N+](=O)[O-])cc1` [Compound 286, 2′-nitro-4′-(7-oxo-6,7-dihydro-3H-[1,2,3]triazolo[4,5-d]pyrimidin-5-yl)-[1,1′-biphenyl]-4-carboxylic acid] registered an EC50 not above 10 µM.

In the case of `O=C(O)c1ccc(-c2ccc(-c3nc4[nH]nnc4c(=O)[nH]3)c(OC3CCCC3)c2)cc1` [Compound 194, 3′-(Cyclopentyloxy)-4′-(7-oxo-6,7-dihydro-3H-[1,2,3]triazolo[4,5-d]pyrimidin-5-yl)-[1,1′-biphenyl]-4-carboxylic acid], the concentration for a half-maximal effect (EC50) was not above 10 µM.

What is called EC50 is the midpoint of the concentration-response curve.
